# According to US20240270748A1 (Merck Patent GmbH, priority 2021, published 2024):
# Assays:
# [1] = system: NCI-H226 human mesothelioma tumor cells; assay: NCI-H226 in vivo efficacy study; settings: H2d Rag2 female mice, subcutaneous NCI-H226 tumors, po qd for 29 days
# Procedure: NCI-H226 In Vivo Efficacy Study
# 7-9-week-old H2d Rag2 female mice (own breeding, Taconic-Denmark) were inoculated subcutaneously with 5×10^6 NCI-H226 human mesothelioma tumor cells in the right flank. Tumor growth and body weight was measured twice weekly using caliper. Tumor volume was calculated using the formula TV=L×W×W/2.
# When tumor volume reached approximately 75-150 mm^3, animals were randomized (Day 0) into treatment groups (n=9-10/group) and treated perorally (po) once daily (qd) for 29 days with either vehicle (20% hydroxypropyl β-cyclodextrin in 50 mM PBS pH 7.4) or Compound no. 2. Compound no. 2 was tested at dosing levels of 1, 3, 10, 30, and 100 mg/kg, respectively. Results are depicted in FIG. 1 (tumor growth over time for vehicle group and each dosage group) and FIG. 2 (final tumor volume of vehicle group and each dosage group).
# Statistical analysis of tumor volumes between treatment groups was done using repeated measures analysis of covariance (RM-ANCOVA) in a linear mixed effects model followed by least-squares means pairwise comparisons.
# The animal experiment was performed under regulation of the German animal welfare act and in accordance with the EU laboratory animal directive for the area of animal experiments.
# YAP-TEAD interaction = assay: SK-HEP-1 reporter assay (8xTEAD responsive elements driving NanoLuc luciferase); type: cell-based; settings: Homo sapiens, SK-HEP1, SK-HEP-1 reporter assay; class symbols
# How it was run: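 SK-HEP-1 cells stably carrying 8×TEAD-driven NanoLuc treated in duplicate, 10-point dose from 30 μM final, 0.3% DMSO, 24 h at 37° C. Luminescence after NanoGlo lysis/substrate addition; IC50 calculated from dose response.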
# SW620 Yap KO cells = assay: Viability assay in SW620 Yap KO (Yap independent) cells, CyQuant; type: cell-based; settings: Homo sapiens, SW-620, 96 h, class symbols
# How it was run: (§1)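 Seeded cells were dosed 24 h later in duplicate (10-point, 1:3 dilutions, top 30 μM final, 0.3% DMSO) and incubated 96 h at 37 °C. Viability was read with CyQUANT DNA dye after 1 h, fluorescence bottom read. NCI-H226 in RPMI 1640 medium; SW620 YAP/TAZ CRISPR knockout in DMEM/F-12 medium.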
# NCI-H226 cells = assay: Viability assay in NCI-H226 (Yap-dependent) cells, CyQuant; type: cell-based, human; settings: Homo sapiens, class symbols
# How it was run: as §1
Structure (SMILES),dosing levels showing maximal inhibition of tumor growth [1] [mg/kg],"tumor growth inhibition compared to vehicle treated group ([1]; all tested dosing levels 1, 3, 10, 30, 100 mg/kg, p-value <0.001)",IC50 (YAP-TEAD interaction) [µM],IC50 (SW620 Yap KO cells) [µM],melting point [°C],IC50 (NCI-H226 cells; 96 h) [µM],"IC50 (NCI-H226 cells; NCI-H226, 96 h) [µM]"
"Cn1cc2c3cc(C(=O)O)ccc3n(-c3ccc(C(F)(F)F)cc3)c2n1 [Example 2, 2-methyl-8-[4-(trifluoromethyl)phenyl]-2H,8H-pyrazolo[3,4-b]indole-5-carboxylic acid]",> 10,Significant tumor growth inhibition,,,,,
"Cn1cc2c3cc(CNC(=O)CCl)ccc3n(-c3ccc(C(F)(F)F)cc3)c2n1 [Example 24, 2-chloro-N-([2-methyl-8-[4-(trifluoromethyl)phenyl]pyrazolo[3,4-b]indol-5-yl]methyl)acetamide]",,,0.1 to 10,1 to 10,221 to 222,0.1 to 1,
"Cn1cc2c3cc(C(=O)O[C@@H]4O[C@H](C(=O)O)[C@@H](O)[C@H](O)[C@H]4O)ccc3n(-c3ccc(C(F)(F)F)cc3)c2n1 [Example 30, (2S,3S,4S,5R,6S)-3,4,5-trihydroxy-6-{2-methyl-8-[4-(trifluoromethyl)phenyl]-2H,8H-pyrazolo[3,4-b]indole-5-carbonyloxy}oxane-2-carboxylic acid]",,,,,110 to 111,,
"C[C@@H](CO)NS(=O)(=O)c1ccc2c(c1)c1nnn(C)c1n2-c1ccc(C(F)(F)F)cc1 [Example 38, N-[(2S)-1-hydroxypropan-2-yl]-3-methyl-4-[4-(trifluoromethyl)phenyl]-3H,4H-[1,2,3]triazolo[4,5-b]indole-7-sulfonamide]",,,0.01 to 0.1,> 30,232 to 234,,> 10
